The results in this text go back to patent publication US20130281512A1, “AGENTS FOR TREATING DISORDERS INVOLVING MODULATION OF RYANODINE RECEPTORS” (LES LABORATOIRES SERVIER, priority 2012, published 2013).

Like-named read-outs stand apart in the source and are kept apart here.

For one series, the system named is WT mice. Nature of the series: Voluntary wheel activity and EDL specific force in WT (C57BL/6) mice. As to conditions: 50 mg/kg/d. Type of series: in vivo, mouse. As to the method:
Voluntary activity on wheel, body weight, and average water consumption were measured in the first 3 weeks. Specific muscle force was measured after 4 weeks of treatment, at the end of the study.
(§1) Distance traveled (Km/day) over a 24 hr period was analyzed as an index of improved functional activity (see, DMD_M.2.1.002 SOP at http://www.treat-nmd.eu/). At the conclusion of the study, Extensor digitorum longus (EDL) muscle was isolated for muscle force analysis as further described hereinbelow. Blood was collected from each mouse by retro-orbital bleeds at the end of the study (after end of dark cycle—about 7 AM) to assess drug plasma concentrations. Experiments were blinded.
At the end of the study, EDL muscle was dissected from hind limbs for isometric force analysis using the 407A Muscle Test System from Aurora Scientific (Aurora, Ontario, Canada). […] Force-frequency relationships were determined by triggering contraction using incremental stimulation frequencies (5-250 Hz for 200 ms at suprathreshold voltage). […] At the end of the force measurement, the length (Lo) of the EDL muscle while sutured in the Aurora system was measured excluding the tendons. […] The cross-sectional area (mm^2) of the EDL muscle was calculated by dividing the EDL muscle weight by the EDL muscle length and the mammalian muscle density constant of […] (Yamada, T., et al. Arthritis and rheumatism 60:3280-3289). […]

A short description of series [1]: Morning blood exposure (drug plasma concentrations) in mdx and WT mice. Type of series: in vivo. As to conditions: mouse, oral, read-out: Morning blood exposure (average±SEM). The procedure:
as §1

`COc1ccc2c(c1)CN(Cc1ccc(C(=O)O)cc1)CCS2` [Compound 1, 4-((7-Methoxy-2,3-dihydrobenzo[f][1,4]thiazepin-4(5H)-yl)methyl)benzoic acid]: the “travel distance on voluntary wheel” value with WT mice was “No effect”. Also, the “specific muscle force (EDL)” value with WT mice (4 weeks) is listed as “No effect”. Further, the concentration at 4 weeks in series [1] (C57BL/6 (WT), 50 mg/kg/d-dosed WT mice) was 72.8 ± 7 µM; in series [1] (C57BL/10ScSn-DMD^mdx/J (mdx), 5 mg/kg/d-dosed mdx mice) it was 3.3 ± 0.4 µM; in series [1] (C57BL/10ScSn-DMD^mdx/J (mdx), 10 mg/kg/d-dosed mdx mice) it was 10.7 ± 0.9 µM; in series [1] (C57BL/10ScSn-DMD^mdx/J (mdx), 50 mg/kg/d-dosed mdx mice) it was 52.8 ± 1.7 µM.
